Reference: patent US8691864B2, “Agents useful for reducing amyloid precursor protein and treating dementia and methods of use thereof” (priority 2000, dated 2014)

What was measured:
βAPP = βAPP levels in brain cortex and CSF of transgenic mice; assay type: in vivo; conditions: 2.5 mg/kg i.p., once daily for 3 weeks
SK-N-SH cells = assay: LDH assay / cell number and viability, SK-N-SH cells; assay type: cell-based, human
Excerpt: Measurement of released lactate dehydrogenase (LDH) in the conditioned medium was undertaken as a marker of cell viability and integrity, as described previously (Lahiri et al., 1997 and 1998).
This was not associated with cellular dysfunction, as determined by measurement of LDH levels versus untreated controls (FIG. 4C).

APP = assay: rate of APP synthesis in SH-SY5Y cells (35S labelling, immunoprecipitation); assay type: cell-based, human; conditions: 10 μM, 16 hours
Description: 8×10^6 SHSY-5Y cells were plated on 100 mm dishes with DMEM containing 10% FBS. After 36 hours, the culture medium was replaced with DMEM containing 0.5% FBS. The cells were incubated with low serum medium for 1 hour. Thereafter, the medium was replaced with fresh low serum medium with and without 10 μM of phenserine for 16 hours.
After treatment with methionine and cystine free medium, 2 ml of ^35S-labeled DMEM ([…]) with and without phenserine (10 μM) were added and incubated for 10 minutes. Thereafter, the labeled medium was carefully removed and the cells were suspended in lysis buffer containing with protease inhibitors and frozen at −80° C. for use in the immunoprecipitation assay.
APP protein was immunoprecipitated from 300 μig of total protein in each sample using the polyclonal antibody O443, which recognizes a 20 amino acid sequence in the carboxy terminal of APP, and protein A/G resin overnight at 4° C. Immunoprecipitated APP was eluted from the protein AJG resin with 30 μl of elution buffer (10% beta-mercaptoethanol). The samples were loaded onto 10% trys-glycine 10 gels, and the proteins were separated at 150 V for 90 min. The gels were fixed and dried at 80° C. for 60 min. The dried gels were exposed to Phosphor Screen (PACKARD Instrument Company, Inc., Meriden, Conn.) overnight and the βAPP signals were quantitated on a phosphor imager. […]

Aβ1-40 = Aβ1-40 levels in cerebral cortex of transgenic mice, ELISA; assay type: in vivo; conditions: formic acid extraction, 3 weeks daily
Description: (§1) Greater reductions could be achieved, but, as previously reported, doses of >5 mg/kg produce cholinergic side effects for the (−)-enantiomer but not for the (+)-enantiomer.
(§2) Samples of cerebral cortex from the transgenic mice then were analyzed for β amyloid peptide (Aβ) levels. Specifically, Aβ1-40 and Aβ1-42 levels, following formic acid extraction, were determined by ELISA assay (Suzuki et al., 1994).

total Aβ peptide = assay: total Aβ ELISA in SK-N-SH conditioned medium; assay type: cell-based, human; conditions: 50 μM
Description: Total Aβ peptide levels in SH-SY-SY and SK-N-SH cultured samples were assayed by a sensitive ELISA (Suzuki et al., 1994). For total Aβ measurements in conditioned medium, the rabbit polyclonal antibody #3160 (1-40 residues of Aβ) was used as a capture antibody for all species of Aβ peptide (Aβ1-40 and Aβ1-42) while monoclonal antibody 4G8 (17-25 residues of Aβ) was used to detect Aβ peptide levels, and the values were expressed as the mean of six independent assays.
Likewise, (+)-phenserine reduced BAPP protein levels and total Aβ peptide levels at 16 hours (FIG. 5).

Aβ1-42 = Aβ1-42 levels in cerebral cortex of transgenic mice, ELISA; assay type: in vivo; conditions: formic acid extraction, 3 weeks daily
Description: as §1, §2

CN1CC[C@@]2(C)c3cc(OC(=O)Nc4ccccc4)ccc3N(C)[C@@H]12 [(−)-phenserine]
reduction of βAPP levels in CSF (βAPP): 55% | LDH levels in media (SK-N-SH cells; SK-N-SH, 50 μM, up to 16 hours): no significant difference between treated and untreated levels | toxicity as assessed by an LDH assay (SK-N-SH cells; SK-N-SH, 0.5, 5 or 50 μM, 16 hours): no significant toxicity | reduction of βAPP synthesis (APP): 52% | reduction of Aβ1-40 levels (Aβ1-40): 68% | reduction of total Aβ versus untreated controls (total Aβ peptide; 8 hours): 14% | reduction of total Aβ versus untreated controls (total Aβ peptide; 16 hours): 31% | reduction of Aβ1-42 levels (Aβ1-42): 53%
